From US7635686B2, “Therapeutically useful triethyleneglycol cholesteryl oligonucleotides” (Bioniche Life Sciences, Inc., priority 2001, dated 2009)
{TEG-Chol} = cholesteryl attached through a triethyleneglycol (TEG) spacer, added as cholesteryl-TEG phosphoramidite

Legend:
MEG-01 cells [1] = test: Apoptosis by phosphatidylserine redistribution (FITC-annexin V flow cytometry) in MEG-01 cells; assay type: cell-based, human; settings: 48 hours; for Percentage of positive cells for phosphatidylserine (cells in apoptosis) in MEG-01 cells: untreated cells 12%; for Induction of apoptosis in MEG-01 cells (in words): translocation of phosphatidylserine, up to 53.0 μM
Experimental: Redistribution of plasma membrane phosphatidylserine is a characteristic of cells undergoing apoptosis (Martin et al., J. Exp. Med., 182:1545, 1995). The redistribution of phosphatidylserine in the plasma membrane during apoptosis was measured by flow cytometry using FITC (fluorescein isothiocyanate)-conjugated annexin V (BD Pharmingen, San Diego, Calif.). MEG-01 cells, a human chronic myelogeneous leukemia cell line positive for the Philadelphia chromosome and having a BCR-ABL gene fusion, were incubated at 2.5×10^5 cells/ml for 48 hours with 5.3, 26.5 and 53.0 μM final concentrations of SEQ ID NO:1, SEQ ID NO:2, SEQ ID NO:5, SEQ ID NO:6 and cholesteryl-TEG phosphoramidite molecule. The percentage of cells in apoptosis after exposure to the SEQ ID NOs:1, 2, 5, 6, or cholesteryl-TEG phosphoramidite treatment is reported in Table 2. The percentage of apoptosis in untreated MEG-01 cells was 12%.

HIG-82 cells [2] = test: HIG-82 synovial cell proliferation (MTT reduction); assay type: cell-based, rabbit; settings: 53 μM, 48 hours
Experimental: Adherent HIG-82 cells, a synovial cell line, were incubated at 10×10^5 cells/ml for 48 hours with 53 μM (final concentration) of SEQ ID NO:2, SEQ ID NO:3, SEQ ID NO:4, SEQ ID NO:6, SEQ ID NO:7, or SEQ ID NO:8. Cellular proliferation was measured using dimethylthiazol-diphenyl-tetrazolium (MTT) reduction (Mosman et al., J. Immunol. Methods 65:55, 1983). MTT was measured at a wavelength of 570 nm using a multiple spectrophotometer reader (ELX800, Bio-TEK, Instruments Inc., Winooski, Vt.). The percentage of inhibition, calculated as […]

HIG-82 cells [3] = test: Apoptosis by nuclear DNA fragmentation (TUNEL, flow cytometry) in HIG-82 cells; assay type: cell-based, rabbit; settings: 53 μM; for Percentage of cells containing DNA fragmentation (cells in apoptosis) in HIG-82 cells: 48 hours, TUNEL; for Induction of apoptosis in HIG-82 cells (in words): fragmented nuclear DNA
Experimental: Adherent HIG-82 cells were incubated at 1.0×10^5 cells/ml for 48 hours with 53 μM final concentration of SEQ ID NO:1, SEQ ID NO:2, SEQ ID NO:5 or SEQ ID NO:6. Since phosphatidylserine/annexin V detection of apoptosis was not reliable after adherent cell harvesting techniques, such as trypsinization (van Engeland, Cytometry, 31:1, 1998), apoptosis in HIG-82 cells was evaluated using flow cytometry by the detection of fragmented DNA by terminal deoxynucleotidyl transferase enzyme-mediated bromodeoxyuridine triphosphate-biotin nick end-labeling (TUNEL) using a commercial assay (APO-BRDU™ kit; BD Pharmingen). The percentage of cells containing nuclear DNA fragmentation was determined. After 24 hours, untreated HIG-82 cells were essentially negative for nuclear DNA fragmentation.

MEG-01 cells [4] = test: Cell cycle stage in MEG-01 cells (propidium iodide flow cytometry); assay type: cell-based, human; settings: 24 h
Experimental: To determine a cell cycle stage, various assays and procedures known to one skilled in the art may be employed. One such procedure uses a CYCLETEST™ PLUS DNA commercial kit (Becton Dickinson, Franklin Lakes, N.J.). Briefly, nuclei from cells are obtained by dissolving the cell membrane in a nonionic detergent, eliminating the cell cytoskeleton and nuclear proteins with trypsin, digesting the cellular RNA with RNase, and stabilizing the nuclear chromatin with spermine. Propidium iodide is added to the cell nuclei and their fluorescence was analyzed in a flow cytometer equipped with electronic doublet discrimination capability (FACSCalibur, Becton Dickinson, Franklin Lakes, N.J.). Accumulation of cells in G0/G1, early S (SE), mid S (SM), late S (SL) or G2/M phases of the cell cycle may be analyzed using MODFIT LT software (Verity Software House Inc., Topsham, Mass.), or other appropriate software.
Exponentially growing MEG-01 cells (2×10^5 cells/ml) were incubated for 24 h with 0 μM (control), 53 μM of SEQ ID NO:2 or 53 μM of SEQ ID NO:6. The cells were collected, centrifuged, and cell cycle stage was determined.

MEG-01 cells [5] = test: MEG-01 cells inoculated subcutaneously in athymic nude mice; assay type: in vivo; settings: 1, 10, 100 mg/kg, after 4 weeks of treatment; versus saline and unconjugated sequences; dose-dependent
Experimental: MEG-01 cells are inoculated subcutaneously into athymic nude mice as previously described (Takeo et al., Leukemia 7:1286, 1993). The mice are divided into 13 groups of 10 mice. On day 0, group 1 mice receive saline, group 2 mice receive 1 mg/kg SEQ ID NO:1, group 3 mice receive 10 mg/kg SEQ ID NO:1, group 4 mice receive 100 mg/kg SEQ ID NO:1, group 5 mice receive 1 mg/kg SEQ ID NO:2, group 6 mice receive 10 mg/kg SEQ ID NO:2, group 7 mice receive 100 mg/kg SEQ ID NO:2, group 8 mice receive 1 mg/kg SEQ ID NO:5, group 9 mice receive 10 mg/kg SEQ ID NO:5, group 10 mice receive 100 mg/kg SEQ ID NO:5, group 11 mice receive 1 mg/kg SEQ ID NO:6, group 12 mice receive 10 mg/kg SEQ ID NO:6 and group 13 mice receive 100 mg/kg SEQ ID NO:6 After 4 weeks of treatment, the mice are sacrificed and tumor mass is determined.

[6] = test system: Streptococcal cell wall-induced arthritis; test: Streptococcal cell wall-induced arthritis in rats; assay type: in vivo, LEW/N rats; settings: 1, 10, 100 mg/kg with SCW, monitored daily for two weeks; versus SCW alone and unconjugated sequences; dose-dependent
Experimental: Streptococcal cell wall-induced arthritis in LEW/N rats resembles a localized neoplasm consisting of, in part, of a proliferative and invasive population of fibroblast-like synovial cells (Yocum et al., Am. J. Pathol. 132:38, 1988). The arthritis is induced in LEW/N rats by intra-articular injection of streptocococcal cell wall (SCW) from group A Streptococcus pyogenes. The rats are divided into 13 groups of 10 rats. On day 0, group 1 rats receive SCW, group 2 rats receive SCW+1 mg/kg SEQ ID NO:1, group 3 rats receive SCW+10 mg/kg SEQ ID NO:1, group 4 rats receive SCW+100 mg/kg SEQ ID NO:1, group 5 rats receive SCW+1 mg/kg SEQ ID NO:2, group 6 rats receive SCW+10 mg/kg SEQ ID NO:2, group 7 rats receive SCW+100 mg/kg SEQ ID NO:2, group 8 rats receive SCW+1 mg/kg SEQ ID NO:5, group 9 rats receive SCW+10 mg/kg SEQ ID NO:5, group 10 rats receive SCW+100 mg/kg SEQ ID NO:5, group 11 rats receive SCW+1 mg/kg SEQ ID NO:6, group 12 rats receive SCW+10 mg/kg SEQ ID NO:6, group 13 rats receive SCW+[…]. The joint inflammation is monitored daily for two weeks.

MCF-7 cells = test: MATRIGEL outgrowth after 1 hr pre-incubation, MCF-7; assay type: cell-based, human; settings: MCF-7, 53 μM pre-incubation 1 hr, 3 days on MATRIGEL, FIG. 1
Experimental: (§1) Various in vitro and in vivo assays may be used to evaluate the influence of the extracellular microenvironment on behavior of normal cells and tumor cells. Such assays may employ MATRIGEL® (Becton Dickinson, Franklin Lakes, N.J.), which is a solubilized basement membrane preparation extracted from the Engelbreth-Holm-Swarm murine sarcoma.
(§2) MCF-7, MDA-MB-231 (MDA-231), Hs578T and Mpanc-96 cells were cultured separately in regular culture medium, trypsinized, and counted. 100×10^3 of MDA-231 cells, 100×10^3 of Hs578T cells, 150×10^3 of MCF-7 cells and 150×10^3 of Mpanc-96 cells were separately pre-incubated for 1 hr at 37° C. in a final concentration of 53 μM of SEQ ID NO:1, 53 μM of SEQ ID NO:5 or RCM, and plated on top of MATRIGEL®-coated plates (MATRIGEL® Basement membrane matrix coated cellware 24-well plate,) for 3 days. Plates were fixed with 10% formalin. Digital photographs of the cells in the 24-well plates were taken using a Nikon Coolpix 990 digital camera (Nikon Corporation, Tokyo, Japan) connected to a Nikon inverted microscope model TMS.

[7] = test system: MDA-MB-231 (MDA-231) cells; test: MATRIGEL outgrowth after 1 hr pre-incubation, MDA-231; assay type: cell-based, human; settings: MDA-231, 53 μM pre-incubation 1 hr, 3 days on MATRIGEL, FIG. 1 and FIG. 2
Experimental: as §1, §2
(§3) MDA-MB-231 (MDA-231) and Hs578T were cultured in regular culture medium, trypsinized and counted. 100×10^3 of MDA-MB-231 cells or 100×10^3 of Hs578T cells, were separately pre-incubated for 1 hr at 37° C. in a final concentration of 53 μM of SEQ ID NO:4, 53 μM of SEQ ID NO:8 or RCM and plated on MATRIGEL®-coated plates for 3 days. Plates were fixed with 10% formalin. Digital photographs of the cells in the 24-well plates were taken using a Nikon Coolpix 990 digital camera (Nikon Corporation, Tokyo, Japan) connected to a Nikon inverted microscope model TMS.

Hs578T cells = test: MATRIGEL outgrowth after 1 hr pre-incubation, Hs578T; assay type: cell-based, human; settings: 53 μM pre-incubation 1 hr, 3 days on MATRIGEL, FIG. 1 and FIG. 2
Experimental: as §1, §2, §3

Mpanc-96 cells = test: MATRIGEL outgrowth after 1 hr pre-incubation, Mpanc-96; assay type: cell-based, human; settings: Mpanc-96, 53 μM pre-incubation 1 hr, 3 days on MATRIGEL, FIG. 1
Experimental: as §1, §2

MDA-MB-231 cells = test: Release of nuclear mitotic apparatus protein (NuMA) by MDA-MB-231 cells (ELISA); assay type: cell-based, human; settings: MDA-MB-231 monolayers, 53 μM, 72 hrs; percentage increase
Experimental: MDA-MB-231 cells were cultured as monolayers in respective control media, with 53 μM final concentration of SEQ ID NO:1 or 53 μM final concentration of SEQ ID NO:5 for 72 hrs. The release of nuclear mitotic apparatus protein (NuMA) was used as a measure of apoptosis. NuMA was determined using a commercial (ELISA kit (Oncogene, Cambridge, Mass.) following the manufacturer's protocol. Results are shown in Table 10 and are expressed as the percentage increase in NuMA release compared to respective controls based on optical density measurements.

Row | Substance | Percentage of positive cells for phosphatidylserine (cells in apoptosis) in MEG-01 cells (MEG-01 cells [1]; 5.3 μM) [%] | Percentage of positive cells for phosphatidylserine (cells in apoptosis) in MEG-01 cells (MEG-01 cells [1]; 26.5 μM) [%] | Percentage of positive cells for phosphatidylserine (cells in apoptosis) in MEG-01 cells (MEG-01 cells [1]; 53.0 μM) [%] | Induction of apoptosis in MEG-01 cells (in words) (MEG-01 cells [1]) | Inhibition of proliferation of synovial HIG-82 cells (in words) (HIG-82 cells [2]) | Inhibition of HIG-82 cell proliferation, inhibition (%) (HIG-82 cells [2]; MTT) | Percentage of cells containing DNA fragmentation (cells in apoptosis) in HIG-82 cells (HIG-82 cells [3]) [%] | Induction of apoptosis in HIG-82 cells (in words) (HIG-82 cells [3]) | Induction of cell cycle arrest in MEG-01 cells (in words) (MEG-01 cells [4]; 53 μM) | % of cells in phase SM (MEG-01 cells [4]; MEG-01, 53 μM, untreated 10.8) [%] | % of cells in phase SL + G2/M (MEG-01 cells [4]; MEG-01, 53 μM, untreated 17.8) [%] | % of cells in phase G0/G1 + SE (MEG-01 cells [4]; MEG-01, 53 μM, untreated 71.4) [%] | Tumor mass (MEG-01 cells [5]) | Joint inflammation [6] | Formation of 3-dimensional structures / cell morphology on MATRIGEL (MCF-7 cells) | Formation of 3-dimensional structures / cell morphology on MATRIGEL [7] | Formation of 3-dimensional structures / cell morphology on MATRIGEL (Hs578T cells) | Formation of 3-dimensional structures / cell morphology on MATRIGEL (Mpanc-96 cells) | NuMA release compared to controls (%) (MDA-MB-231 cells)
1 | 5′ OH-GGGAGG(TEG-cholesteryl) 3′ (3' {TEG-Chol}, sugars by position and backbone not given here) [SEQ ID NO:6, 5′-OH, 3′-TEG cholesteryl synthetic oligonucleotide] | 13 | 22 | 39 | capacity to induce apoptosis | capacity to inhibit the cellular proliferation | 75 | 18 | capacity to induce apoptosis | capacity to induce cell cycle arrest at the SL+G2/M phase | 6.5 | 41.9 | 51.6 | less tumor mass | less inflammation |  |  |  |  | 
2 | 5′ OH-GGGTGG(TEG-cholesteryl) 3′ [SEQ ID NO:5] | 12 | 27 | 42 | capacity to induce apoptosis |  |  | 17 | capacity to induce apoptosis |  |  |  |  | less tumor mass | less inflammation | prevented the formation of 3-dimensional structures | prevented the formation of 3-dimensional structures | prevented the formation of 3-dimensional structures | prevented the formation of 3-dimensional structures | 
3 | 5′ OH-GGGTGG-OH 3′ [SEQ ID NO:1] | 12 | 12 | 12 | inactive |  |  | 1 | inactive |  |  |  |  |  |  | did not change cell morphology | did not change cell morphology | did not change cell morphology | did not change cell morphology | +5%
